# Several values for one entry are separate records, joined by “and”; a condition that tells them apart may be missing. Identical values can stand only once.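 All cell lines were grown in 96-well plates and treated with compound for 48 hours. GI50 marks 50% less growth. Definition used: TGI = concentration required for complete inhibition of growth.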
# Columns and labels:
# Experiment in all cases: inhibition of tumour cell growth, NCI panel, 48 h
# SK-OV-3 ovarian = system: SK-OV-3 ovarian
# SK-MEL-5 melanoma = system: SK-MEL-5 melanoma
# MDA-MB-435 = system: MDA-MB-435
# EKVX NSCLC = system: EKVX NSCLC
# HL-60(TB) leukemia = system: HL-60(TB) leukemia
# K-562 leukemia = system: K-562 leukemia
# HT29 colon = system: HT29 colon
# NCI-H226 lung = system: NCI-H226 lung
# MDA-MB-231 breast = system: MDA-MB-231 breast
# SF-295 CNS = system: SF-295 CNS
# A549 NSCLC = system: A549 NSCLC
# HCT-15 colon = system: HCT-15 colon
# BT-549 breast = system: BT-549 breast
# IGROV1 ovarian = system: IGROV1 ovarian
# SF-268 CNS = system: SF-268 CNS
# SK-MEL-28 melanoma = system: SK-MEL-28 melanoma
# PC-3 prostate = system: PC-3 prostate
# MOLT-4 leukemia = system: MOLT-4 leukemia
# SR leukemia = system: SR leukemia
# SNB-19 CNS = system: SNB-19 CNS
# HCT-116 colon = system: HCT-116 colon
# NCI/ADR-RES ovarian = system: NCI/ADR-RES ovarian
# RXF 393 renal = system: RXF 393 renal
# M14 melanoma = system: M14 melanoma
# OVCAR-8 ovarian = system: OVCAR-8 ovarian
# OVCAR-5 ovarian = system: OVCAR-5 ovarian
# DU-145 prostate = system: DU-145 prostate
# NCI-H460 lung = system: NCI-H460 lung
# HCC-2998 colon = system: HCC-2998 colon
# T-47D breast = system: T-47D breast
# KM12 colon = system: KM12 colon
# OVCAR-4 ovarian = system: OVCAR-4 ovarian
# UACC-257 melanoma = system: UACC-257 melanoma
# MALME-3M melanoma = system: MALME-3M melanoma
# OVCAR-3 ovarian = system: OVCAR-3 ovarian
# TK-10 renal = system: TK-10 renal
# NCI-H23 lung = system: NCI-H23 lung
# SN12C renal = system: SN12C renal
# U251 CNS = system: U251 CNS
# HOP-62 NSCLC = system: HOP-62 NSCLC
# SK-MEL-2 melanoma = system: SK-MEL-2 melanoma
# MCF7 breast = system: MCF7 breast
# UACC-62 melanoma = system: UACC-62 melanoma
# HS 578T breast = system: HS 578T breast
# HOP-92 NSCLC = system: HOP-92 NSCLC
# RPMI-8226 leukemia = system: RPMI-8226 leukemia
# 786-0 renal = system: 786-0 renal
# ACHN renal = system: ACHN renal
# COLO 205 colon = system: COLO 205 colon
# SF-539 CNS = system: SF-539 CNS
# CCRF-CEM leukemia = system: CCRF-CEM leukemia
# CAKI-1 renal = system: CAKI-1 renal
# NCI-H522 lung = system: NCI-H522 lung
# SNB-75 CNS = system: SNB-75 CNS
# A498 renal = system: A498 renal
# UO-31 renal = system: UO-31 renal
# LOX IMVI melanoma = system: LOX IMVI melanoma
# SW-620 colon = system: SW-620 colon
smiles,measurement,setting,value
CNc1cc(-c2cccc(OC(F)(F)F)c2)nc2ccc(N3CCCC3)cc12,GI50,SK-OV-3 ovarian,1660 nM and 1670 nM and 1740 nM
same,TGI,SK-OV-3 ovarian,3040 nM and 3030 nM and 3140 nM
same,GI50,SK-MEL-5 melanoma,1740 nM and 1650 nM and 1640 nM
same,TGI,SK-MEL-5 melanoma,3120 nM and 3060 nM and 3010 nM
same,GI50,MDA-MB-435,1590 nM and 1710 nM and 1630 nM
same,TGI,MDA-MB-435,2970 nM and 3190 nM and 3090 nM
same,GI50,EKVX NSCLC,1640 nM and 1570 nM and 1740 nM
same,TGI,EKVX NSCLC,3430 nM and 3060 nM and 3420 nM
same,GI50,HL-60(TB) leukemia,2120 nM and 1960 nM and 1950 nM
same,TGI,HL-60(TB) leukemia,4650 nM and 4940 nM and 4280 nM
same,GI50,K-562 leukemia,884 nM
same,TGI,K-562 leukemia,3610 nM
same,GI50,HT29 colon,1310 nM and 1610 nM and 1540 nM
same,TGI,HT29 colon,2690 nM and 3060 nM and 3010 nM
same,GI50,NCI-H226 lung,2490 nM and 1880 nM
same,TGI,NCI-H226 lung,4580 nM and 3770 nM
same,GI50,MDA-MB-231 breast,1720 nM and 1700 nM and 1460 nM
same,TGI,MDA-MB-231 breast,3230 nM and 3140 nM and 2950 nM
same,GI50,SF-295 CNS,1610 nM and 1750 nM and 1680 nM
same,TGI,SF-295 CNS,2980 nM and 3200 nM and 3090 nM
same,GI50,A549 NSCLC,1790 nM and 1660 nM and 1750 nM
same,TGI,A549 NSCLC,3260 nM and 3030 nM and 3270 nM
same,GI50,HCT-15 colon,860 nM and 1160 nM and 1300 nM
same,TGI,HCT-15 colon,2350 nM and 2540 nM and 2800 nM
same,GI50,BT-549 breast,2140 nM and 1940 nM and 1790 nM
same,TGI,BT-549 breast,6170 nM and 3650 nM and 3330 nM
same,GI50,IGROV1 ovarian,1570 nM and 1740 nM and 1720 nM
same,TGI,IGROV1 ovarian,3080 nM and 3390 nM and 3250 nM
same,GI50,SF-268 CNS,1940 nM and 1880 nM and 1870 nM
same,TGI,SF-268 CNS,3510 nM and 3770 nM
same,GI50,SK-MEL-28 melanoma,1640 nM and 1780 nM and 1670 nM
same,TGI,SK-MEL-28 melanoma,3030 nM and 3200 nM and 3060 nM
same,GI50,PC-3 prostate,1460 nM and 1610 nM and 1500 nM
same,TGI,PC-3 prostate,2950 nM and 3100 nM and 3010 nM
same,GI50,MOLT-4 leukemia,2060 nM and 1810 nM and 1560 nM
same,TGI,MOLT-4 leukemia,4260 nM and 4180 nM and 3600 nM
same,GI50,SR leukemia,310 nM and 1560 nM
same,TGI,SR leukemia,1780 nM and 4220 nM
same,GI50,SNB-19 CNS,1900 nM and 1810 nM and 1880 nM
same,TGI,SNB-19 CNS,3570 nM and 3220 nM and 3360 nM
same,GI50,HCT-116 colon,1300 nM and 1790 nM and 1210 nM
same,TGI,HCT-116 colon,2580 nM and 3320 nM and 2520 nM
same,GI50,NCI/ADR-RES ovarian,1780 nM and 1890 nM and 1600 nM
same,TGI,NCI/ADR-RES ovarian,3870 nM and 3790 nM and 3190 nM
same,GI50,RXF 393 renal,1800 nM and 1810 nM and 1510 nM
same,TGI,RXF 393 renal,3270 nM and 3280 nM and 2910 nM
same,GI50,M14 melanoma,1640 nM and 1720 nM and 1690 nM
same,TGI,M14 melanoma,3040 nM and 3240 nM and 3140 nM
same,GI50,OVCAR-8 ovarian,1800 nM and 1810 nM and 1820 nM
same,TGI,OVCAR-8 ovarian,3500 nM and 3390 nM and 3550 nM
same,GI50,OVCAR-5 ovarian,1680 nM and 2040 nM and 1870 nM
same,TGI,OVCAR-5 ovarian,3180 nM and 3730 nM and 3340 nM
same,GI50,DU-145 prostate,1610 nM and 1840 nM and 1880 nM
same,TGI,DU-145 prostate,3120 nM and 3500 nM and 3400 nM
same,GI50,NCI-H460 lung,1600 nM and 1750 nM
same,TGI,NCI-H460 lung,3070 nM and 3440 nM
same,GI50,HCC-2998 colon,1930 nM and 1940 nM and 1750 nM
same,TGI,HCC-2998 colon,3500 nM and 3480 nM and 3230 nM
same,GI50,T-47D breast,1590 nM and 1760 nM
same,TGI,T-47D breast,3510 nM and 3470 nM
same,GI50,KM12 colon,1810 nM and 1760 nM and 1890 nM
same,TGI,KM12 colon,3400 nM and 3350 nM and 3510 nM
same,GI50,OVCAR-4 ovarian,1630 nM and 1690 nM and 1750 nM
same,TGI,OVCAR-4 ovarian,3330 nM and 3190 nM and 3360 nM
same,GI50,UACC-257 melanoma,1890 nM and 1770 nM and 1860 nM
same,TGI,UACC-257 melanoma,3370 nM and 3160 nM and 3340 nM
same,GI50,MALME-3M melanoma,1780 nM and 1920 nM and 1700 nM
same,TGI,MALME-3M melanoma,3240 nM and 3400 nM and 3160 nM
same,GI50,OVCAR-3 ovarian,1690 nM and 1920 nM and 1860 nM
same,TGI,OVCAR-3 ovarian,3140 nM and 3600 nM and 3390 nM
same,GI50,TK-10 renal,1940 nM and 1780 nM and 1800 nM
same,TGI,TK-10 renal,3390 nM and 3200 nM and 3240 nM
same,GI50,NCI-H23 lung,1800 nM and 1940 nM and 1740 nM
same,TGI,NCI-H23 lung,3670 nM and 3620 nM and 3320 nM
same,GI50,SN12C renal,1760 nM and 1680 nM and 1710 nM
same,TGI,SN12C renal,3360 nM and 3140 nM and 3260 nM
same,GI50,U251 CNS,1580 nM and 1690 nM and 1670 nM
same,TGI,U251 CNS,3070 nM and 3080 nM and 3110 nM
same,GI50,HOP-62 NSCLC,1620 nM and 1690 nM and 1720 nM
same,TGI,HOP-62 NSCLC,3110 nM and 3160 nM
same,GI50,SK-MEL-2 melanoma,1720 nM and 1690 nM and 1770 nM
same,TGI,SK-MEL-2 melanoma,3190 nM and 3170 nM and 3230 nM
same,GI50,MCF7 breast,1220 nM and 1650 nM and 1750 nM
same,TGI,MCF7 breast,2880 nM and 3320 nM and 3620 nM
same,GI50,UACC-62 melanoma,1750 nM and 1760 nM and 1700 nM
same,TGI,UACC-62 melanoma,3360 nM and 3160 nM and 3180 nM
same,GI50,HS 578T breast,1870 nM
same,TGI,HS 578T breast,3950 nM
same,GI50,HOP-92 NSCLC,1220 nM and 1300 nM and 1240 nM
same,TGI,HOP-92 NSCLC,2550 nM and 2640 nM and 2580 nM
same,GI50,RPMI-8226 leukemia,1710 nM
same,TGI,RPMI-8226 leukemia,4190 nM
same,GI50,786-0 renal,1560 nM and 1710 nM and 1550 nM
same,TGI,786-0 renal,2910 nM and 3220 nM and 2970 nM
same,GI50,ACHN renal,1610 nM and 1630 nM and 1740 nM
same,TGI,ACHN renal,2960 nM and 2980 nM and 3120 nM
same,GI50,COLO 205 colon,1840 nM and 1810 nM
same,TGI,COLO 205 colon,3580 nM and 3290 nM
same,GI50,SF-539 CNS,1720 nM and 1880 nM and 1780 nM
same,TGI,SF-539 CNS,3190 nM and 3450 nM and 3220 nM
same,GI50,CCRF-CEM leukemia,2020 nM and 1960 nM and 1760 nM
same,TGI,CCRF-CEM leukemia,4520 nM and 4490 nM and 4010 nM
same,GI50,CAKI-1 renal,1570 nM and 1530 nM and 1600 nM
same,TGI,CAKI-1 renal,2910 nM and 2880 nM and 2970 nM
same,GI50,NCI-H522 lung,1680 nM and 1650 nM and 1760 nM
same,TGI,NCI-H522 lung,3330 nM and 3250 nM and 3430 nM
same,GI50,SNB-75 CNS,1700 nM and 1480 nM
same,TGI,SNB-75 CNS,3120 nM and 2930 nM
same,GI50,A498 renal,1170 nM and 1610 nM and 1660 nM
same,TGI,A498 renal,2410 nM and 3000 nM and 3080 nM
same,GI50,UO-31 renal,1360 nM and 1320 nM and 1420 nM
same,TGI,UO-31 renal,2670 nM and 2610 nM and 2740 nM
same,GI50,LOX IMVI melanoma,1710 nM and 1740 nM
same,TGI,LOX IMVI melanoma,3240 nM and 3280 nM and 3230 nM
same,GI50,SW-620 colon,1560 nM and 1840 nM and 1750 nM
same,TGI,SW-620 colon,3080 nM and 3790 nM and 3600 nM
